# From patent US7534780B2, “Estradiol prodrugs” (Bayer Schering Pharma Aktiengesellschaft, priority 2004, dated 2009)
# Experiments:
# [1] = tested on: erythrocytes; assay: Displacement of estradiol-3-sulfamate from the erythrocyte bond (relative binding affinity); set-up: species or system human; details: for RBA to Erythrocytes: human blood, displacement of 14C-labeled estradiol sulfamate; for bond to erythrocytes (in words): m-substituted versus p-substituted compounds
# Description: The SO2—NTH2 group of the substances according to the invention can result in a concentration in erythrocytes by binding to carboanhydrases. The displacement of estradiol-3-sulfamate from the erythrocyte bond by test substances is measured.
# Test preparation: Human blood is mixed with a mixture that consists of ^14C-labeled and unlabeled estradiol sulfamate. The erythrocytes are saturated at the selected working point, and the distribution in plasma/erythrocytes is 40:60. A second blood sample is mixed with a mixture that consists of ^14C-labeled estradiol sulfamate and unlabeled test substance. The relative binding affinity is calculated from the proportion of ^14C-labeled estradiol sulfamate in plasma: higher proportion=strong displacement of ^14C-estradiol sulfamate from the erythrocytes by the test substance=high binding affinity of the test substances to the erythrocytes.
# [2] = target: Human Carboanhydrase I (Homo sapiens, UniProt P00915); assay: Inhibition of carboanhydrase I (CO2 hydration); assay type: biochemical; details: read-out: CAI IC50
# Sequence of Human Carboanhydrase I (P00915 whole entry): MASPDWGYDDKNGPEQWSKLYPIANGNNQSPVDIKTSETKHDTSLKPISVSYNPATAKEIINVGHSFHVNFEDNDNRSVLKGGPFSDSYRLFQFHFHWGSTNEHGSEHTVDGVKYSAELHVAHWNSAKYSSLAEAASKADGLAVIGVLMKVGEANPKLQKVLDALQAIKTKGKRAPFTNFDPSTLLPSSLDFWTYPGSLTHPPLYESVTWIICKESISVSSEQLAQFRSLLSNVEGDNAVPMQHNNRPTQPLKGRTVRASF
# Description: Test preparation: A constant CO2 stream is directed by a buffer that was mixed with carboanhydrase I. The time that is required to reduce the pH within defined limits is a measuring parameter. This parameter reflects the formation of H2CO3 in the medium. IC50 inhibiting values are determined by test substances being pipetted into the test preparation.
# [3] = tested on: erythrocytes; assay: Determination of the erythrocyte/plasma ratio of the substance; assay type: in vitro ADME; details: fresh blood; tracer use for compound 1 or 9, otherwise non-radioactive
# Description: Determination of the substance concentration in the erythrocyte/plasma ratio (tracer use):
# Fresh blood is incubated with a defined amount of tracer compound of compound 1 or 9. After the erythrocytes are separated, the measured radioactivity in the erythrocytes is put into a ratio with the measured radioactivity in the plasma.
# Determination of the erythrocyte/plasma ratio (non-radioactive):
# Freshly-obtained, heparinized blood is mixed with a defined amount of test substance. The concentration in the plasma obtained therefrom is measured. The erythrocyte/plasma ratio is calculated from the measured concentration of the total substance in the plasma and the concentration that is used.
# [4] = tested on: angiotensinogen; assay: Liver estrogeneity (marker angiotensinogen) in ovariectomized rats; assay type: in vivo, rat; details: oral administration
# Description: (§1) Adult Wistar rats were ovariectomized 14 days after this operation for the study of the substances according to the invention. A treatment extended over 3 days (days 1-3); on day 4 after the animals were sacrificed, the recovery of plasma for hormone-analytical and clinical-chemical determinations and the determination of uterus weights were carried out. In satellite tests, correspondingly conditioned animals were sacrificed and samples were taken of their blood after one-time treatment and at other times (see Table 1 for determining estradiol and estrone in the plasma).
# [5] = tested on: ovariectomized rats; assay: Induction of uterus growth in ovariectomized rats, oral treatment days 1-3; assay type: in vivo, rat; details: oral administration
# Description: as §1
# In FIG. 1, the induction of uterus growth in ovariectomized rats is depicted. The treatment is carried out orally from day 1 to the 3rd day, and then the autopsy is carried out on the 4th day. A maximum uterus growth predominantly at 30 μg/animal/day is shown.
# [6] = Estradiol (E2) and estrone (E1) levels in plasma of rats after one-time oral administration; assay type: in vivo, rat
# Description: as §1
Structure (SMILES),RBA to Erythrocytes [1],bond to erythrocytes (in words) [1],IC50 [2] [nM],Distribution Ratio of the Substance to Erythrocytes/Plasma [3],"hepatic estrogenic action, marker angiotensinogen (in words) [4]",estrogenic activity in the uterus / uterus growth (in words) [5],oral availability and estrogeneity compared with the p-substituted compound (in words) [6],increase of mother estrogen (estradiol) on oral administration (in words) ([6]; rats)
"C[C@]12CC[C@@H]3c4ccc(O)cc4CC[C@H]3[C@@H]1CC[C@@H]2OC(=O)c1ccc(S(N)(=O)=O)cc1 [Compound 1, 3-Hydroxyestra-1,3,5(10)-trien-17β-yl 4′-sulfamoylbenzoate]",32,very strong bond,190,7.7,much lesser action on estrogen-modulated liver functions,superior action on the uterus growth,–,–
"C[C@]12CC[C@@H]3c4ccc(O)cc4CC[C@H]3[C@@H]1CC[C@@H]2OC(=O)c1cc(S(N)(=O)=O)c(Cl)cc1Cl [Compound 7, 3-Hydroxyestra-1,3,5(10)-trien-17β-yl 2′,4′-dichloro-5′-sulfamoylbenzoate]",0.40,weaker bonds,500,5,–,–,–,–
"C[C@]12CC[C@@H]3c4ccc(O)cc4CC[C@H]3[C@@H]1CC[C@@H]2OC(=O)c1cccc(S(N)(=O)=O)c1 [Compound 9, 3-Hydroxyestra-1,3,5(10)-trien-17β-yl 3′-sulfamoylbenzoate]",0.18,weaker bonds,380,4,–,enhanced in comparison to estradiol,higher oral availability and estrogeneity,very strong increase
"C[C@]12CC[C@@H]3c4ccc(OS(N)(=O)=O)cc4CC[C@H]3[C@@H]1CC[C@@H]2O [Estradiol-3-sulfamate, reference compound]",100,–,157 ± 10.6,49,–,–,–,–
"C#C[C@]1(O)CC[C@H]2[C@@H]3CCc4cc(O)ccc4[C@H]3CC[C@@]21C [ethinyl estradiol, 17α-ethinyl estradiol, reference compound]",–,–,–,–,significant increase in angiotensinogen,–,–,–
